Data on six compounds can be found in patent publication US6596721B2, “Stable crystalline (6R) -tetrahydrofolic acid” (Eprova AG, priority 1994, dated 2003).

The series in a line: Stability on storage under severe conditions at 60° C. in the air (remaining tetrahydrofolic acid content by HPLC, colour). It is filed as physicochemical. The conditions noted are these: for Colour / discoloration: after a prolonged test period at 60° C. in the air. As to the method: The tetrahydrofolic acid contents and the isomer contents given in the following examples were in each case determined by HPLC. All tetrahydrofolic acid contents are based on the anhydrous substance.
To determine the stability of crystalline (6S)- and (6R)-tetrahydrofolic acid, the substances together with comparison samples were stored under severe conditions at 60° C. in the air. The remaining tetrahydrofolic acid content was measured at periodic intervals and is shown in comparison with the initial value.
In contrast, the other products which are included for comparison reasons discolor rapidly to a high degree.
The substances employed for the stability tests were prepared as follows:
crystalline (6S)-tetrahydrofolic acid as in Example 6 of the present patent application crystalline (6R)-tetrahydrofolic acid as in Example 9 of the present patent application “Yamanouchi's crystalline (6R,S)-tetrahydrofolic acid” as in DE-OS 2 323 124, Example 3
amorphous (6S)-tetrahydrofolic acid (6S)-tetrahydrofolic acid is dissolved in acetic acid and precipitated using diethyl ether
amorphous (6R)-tetrahydrofolic acid (6R)-tetrahydrofolic acid is dissolved in acetic acid and precipitated using diethyl ether
amorphous (6R,S)-tetrahydrofolic acid (6R,S)-tetrahydrofolic acid is dissolved in acetic acid and precipitated using diethyl ether.

Where [1] appears, read: 0 days (initial value), 60° C. in air.

On to `Nc1nc2c(c(=O)[nH]1)N[C@H](CNc1ccc(C(=O)N[C@@H](CCC(=O)O)C(=O)O)cc1)CN2` (mixture of isomers) [amorphous (6R,S)-tetrahydrofolic acid, (6R,S)-tetrahydrofolic acid], for which the “Remaining tetrahydrofolic acid content in comparison with the initial value” (from here on “Remaining tetrahydrofolic acid content”) is recorded as 100.0% under setting [1], 53.4% (2 days at 60° C. in air), 17.4% (13 days at 60° C. in air) and 13.2% (21 days at 60° C. in air).
In the case of `Nc1nc2c(c(=O)[nH]1)N[C@@H](CNc1ccc(C(=O)N[C@@H](CCC(=O)O)C(=O)O)cc1)CN2` [Amorphous (6S)-tetrahydrofolic acid, (6S)-tetrahydrofolic acid], the “Remaining tetrahydrofolic acid content” value is 100.0% under setting [1], 60.4% (2 days at 60° C. in air), 13.7% (13 days at 60° C. in air) and 7.9% (21 days at 60° C. in air).
As for `Nc1nc(=O)c2c([nH]1)NC[C@@H](CNc1ccc(C(=O)N[C@@H](CCC(=O)O)C(=O)O)cc1)N2` [Crystalline (6R)-tetrahydrofolic acid, N-[4-[[(2-amino-1,4,5,6,7,8-hexahydro-4-oxo-(6R)-pteridinyl)methyl]amino]benzoyl]-Lglutamic acid], the Colour / discoloration result is given as “remain very pale, almost white”. Moreover, where the note is “0 h”, the “Remaining tetrahydrofolic acid content” value turned out to be 100.0%. Also, under “48 h”, the “Remaining tetrahydrofolic acid content” value is 96.4%. The “Remaining tetrahydrofolic acid content” value (144 h) is 96.1%. Besides, for the setting “312 h”, the “Remaining tetrahydrofolic acid content” value is on record as 93.3%. For the same compound, for the setting “504 h”, the “Remaining tetrahydrofolic acid content” value was determined as 92.7%. For the setting “1368 h”, the “Remaining tetrahydrofolic acid content” value worked out at 82.0%.
Regarding `Nc1nc2c(c(=O)[nH]1)N[C@@H](CNc1ccc(C(=O)N[C@@H](CCC(=O)O)C(=O)O)cc1)CN2` [Crystalline (6S)-tetrahydrofolic acid, (6S)-tetrahydrofolic acid], the Colour / discoloration result was “remain very pale, almost white”. The “Remaining tetrahydrofolic acid content” value under setting [1] is 100.0%. Also, the “Remaining tetrahydrofolic acid content” value (2 days at 60° C. in air) stood at 100.1%. For the setting “6 days at 60° C. in air”, the “Remaining tetrahydrofolic acid content” value is on record as 102.5%. The “Remaining tetrahydrofolic acid content” value (13 days at 60° C. in air) amounted to 98.7%. In addition, where the note is “21 days at 60° C. in air”, the “Remaining tetrahydrofolic acid content” value was found to be 103.6%. Besides, the “Remaining tetrahydrofolic acid content” value (28 days at 60° C. in air) is given as 103.1%. Besides, the “Remaining tetrahydrofolic acid content” value (57 days at 60° C. in air) came out at 101.2%. In addition, the “Remaining tetrahydrofolic acid content” value (360 days at 60° C. in air) turned out to be 93.3%.
Consider `Nc1nc2c(c(=O)[nH]1)N[C@H](CNc1ccc(C(=O)N[C@@H](CCC(=O)O)C(=O)O)cc1)CN2` [Yamanouchi's crystalline (6R,S)-tetrahydrofolic acid], for which the “Remaining tetrahydrofolic acid content” value under setting [1] is listed as 100.0%; the “Remaining tetrahydrofolic acid content” value (2 days at 60° C. in air) amounted to 83.6%; the “Remaining tetrahydrofolic acid content” value (13 days at 60° C. in air) came out at 48.6%; the “Remaining tetrahydrofolic acid content” value (21 days at 60° C. in air) is recorded as 31.0%; the “Remaining tetrahydrofolic acid content” value (57 days at 60° C. in air) is recorded as 13.4%.
With `Nc1nc2c(c(=O)[nH]1)N[C@H](CNc1ccc(C(=O)N[C@@H](CCC(=O)O)C(=O)O)cc1)CN2` [amorphous (6R)-tetrahydrofolic acid, (6R)-tetrahydrofolic acid], the “Remaining tetrahydrofolic acid content” value was 100.0% under setting [1]; 70.5% (2 days at 60° C. in air); 29.1% (13 days at 60° C. in air); 21.6% (21 days at 60° C. in air); 9.8% (57 days at 60° C. in air).
